From patent US9566341B1, “Compounds including Cox inhibitor moiety and enhanced delivery of active drugs using same” (University of Kentucky Research Foundation, priority 2011, dated 2017)
Structures can show the parent of a compound that is named as a salt.

Columns and labels:
[1] = In vitro diffusion study across microneedle-treated full thickness Yucatan miniature pig skin; format: in vitro ADME; settings: 10% PG containing saturated donor formulation
Protocol: For all in vitro experiments female Yucatan minipig skin (6 months old) were used. Skin sections were obtained by removing the subcutaneous fatty tissue by scalpel dissection, and were stored at −20° C. A PermeGear flow-through (In-Line, Riegelsville, Pa., USA) diffusion cell system was used for the skin permeation studies.
The skin was pierced 20 times with an array containing 5 MN (i.e., to make a total of 100 individual and non-over lapping piercings) before mounting the skin in the diffusion cell for the treatment group. The insertion of MN into skin was carried out manually by applying gentle finger pressure followed by instantaneous removal. MN's were distributed evenly within the 0.95 cm^2 area of skin and could easily be visualized after each 5 MN insertion, as to prevent reapplication in the same area. Single MN array of 5 were used simply out of ease for the experimental procedure. If any damage to an MN section was observed the section was replaced. […] Untreated skin samples were simply placed in the diffusion cells. Diffusion cells were kept at 32° C. using a circulating water bath. Data were collected using skin from a single pig 3-4 cells for the MN treated formulations.
The physiological receiver solution was water adjusted to pH 7.4 containing 20% ethanol, and the flow rate was adjusted to 1.5 ml/h. Each cell was charged with 0.25 ml of the donor in the donor compartment of the chamber. The diffusion cells were covered with a stopper to prevent evaporation. Samples were collected from the receiver compartment in six-hour increments over 48 h or for the length of the treatment. All samples were stored at 4° C. until analyzed by HPLC.
The in vitro permeation experiments were carried out to determine the transdermal flux of the parent drugs and the codrug, permeation coefficients as well as the concentration of the drug molecules in the skin at the end of the study. For all in vitro experiments Yucatan miniature pig (YP) skin was used. Full thickness skin was obtained by removing the subcutaneous fatty tissue by scalpel dissection, and stored at −20° C. A PermeGear flow-through (In-Line, Riegelsville, Pa., USA) diffusion cell system was used for the skin permeation studies. […] The skin was pierced 20 times with a 5 MN array (making 100 individual and non-over lapping piercings) before mounting the skin in the diffusion cell. MN pores were distributed evenly within the 0.95 cm^2 area of skin. Untreated skin samples were mounted directly onto the diffusion cells. The setup was maintained at 32° C. using a circulating water bath. Data collected using a minimum of 3-4 cells per treatment group. The receiver solution was water alkalified to pH 7.4 containing 20% ethanol at 37° C. Gentamycin sulfate (50 mg/L) was added to the receiver for 7 day studies as an antibacterial agent. The receiver flow rate was adjusted to 1.5 ml/h to maintain skin conditions. Each cell was charged with 0.25 ml of the donor and the diffusion cells were covered with a stopper to prevent evaporation of formulation. Samples were collected at regular increments over 48 hours or for the length of the treatment. Drug was concentrated 10 fold by evaporating 1 ml of the collected sample under nitrogen and reconstituting in 100 μl of ACN for quantification. All samples were stored at 4° C. until analyzed by HPLC. The skin was removed at the end of the study and the treatment area was diced into small pieces using a scalpel after removing all excess drugs from top of the skin. Drug was extracted out by immersing the skin pieces in ACN overnight in a shaker water bath at 32° C. Samples were injected into the HPLC after appropriate dilution for quantitative analysis. The donor was also removed and quantified at the end of the study by direct injection onto HPLC after suitable dilution using ACN. All data was analyzed using Fick's first law of diffusion. […]

[2] = Chemical stability in 0.3M acetate buffer pH 5.0 at 32° C.; format: physicochemical
Excerpt: The chemical stability of the prodrugs to hydrolysis and solvolysis at the appropriate temperatures will be determined by measuring concentrations over time in the buffers and solvents used in the solubility and diffusion studies. Chemical degradation rate constants will be important in distinguishing enzymatic degradation from non-enzymatic degradation. Codrug enzymatic metabolism rate constants can also be determined in skin homogenates, to ascertain if the values are useful in the QSPR multiple regression analysis. The kinetics of codrug enzymatic degradation in skin homogenates will be done using abdominal plastic surgery samples. Enzymatic reaction rates will be determined at several different codrug concentrations. The skin is homogenized (Polytron tissue homogenizer and ground glass homogenizer fitted with a glass pestle) in HEPES-buffered Hanks' balanced salt solution and the supernatant is obtained. The enzymatic hydrolysis rates are determined in the homogenate at 37° C. The codrug and its metabolites will be obtained by solid-phase extraction, or another appropriate extraction method. Naltrexone and any other metabolite formed will be assayed by HPLC and expressed as moles of metabolite per minute per milligram of protein. Protein concentrations in the supernatant will be measured by the Bradford method. Controls containing only codrug and HEPES-buffered Hanks' balanced salt solution at 37° C. will also be monitored to determine non-enzymatic hydrolysis.
Chemical and enzymatic stability was determined for the codrugs. For chemical stability studies, the codrug was put in prewarmed 0.3M acetate buffer pH 5.0 after solubilization in <5% ACN, if required, at 32° C. in an incubator. Samples were withdrawn at regular intervals and injected into the HPLC after appropriate dilutions. Enzymatic stability studies are important for estimation of conversion of codrugs in the plasma. […] All stability data was analyzed using pseudo first order kinetics. […]

[3] = tested on: hairless guinea pig micropores; assay: In vivo micropore visualization by gentian violet/India ink staining after MN treatment; settings: MN followed by NTX HCl gel under occlusion
Excerpt: The patches were removed at predetermined time points and the site was cleaned with sterile gauze. Gentian violet/India ink was applied as the dyeing agent at the MN treated sites and allowed to dry before excess dye was removed with ethanol and gauze. Both the dyes stain the viable epidermis but not the intact SC. […] The donor was removed from the top of the skin at the end of the study and analyzed by direct injection onto HPLC after suitable dilution using ACN.
All animal experiments were approved by the University of Kentucky IACUC. A proof of concept in vivo experiment was carried out. 4% w/w gels were prepared with the hydrochloride salt form of the codrug. Gels were formulated by dissolving 4% codrug salt in PG: buffer at pH 5.0=10:90 and 3.0% hydroxyethylcellulose (HEC) polymer (required to have a gel formulation). Polymer was dissolved over a 30 minute period to obtain a homogenous gel. The solution was stirred until a viscous gel resulted and then left at room temperature for 1½ to 2 hours to remove bubbles and ensure complete polymerization. The gel was saturated with excess solid and therefore was cloudy. MN treated animals were first cleaned topically with isopropyl alcohol, and 50 MN array was applied twice mutually perpendicular to each other to give a total of 100 pores at each site. 0.3 mL gel doses were applied to the dorsal region of the HGP. After application of the gel the skin was occluded with the occlusive patch and biocclusive tape was applied to prevent evaporation of the formulation. The patch was changed with new formulation at 3.5 days such that more than 50% intact codrug was always present in formulation. […] The patches were removed to obtain data at successive 24 h time intervals.
The patches were removed at predetermined time points and the site was cleaned with sterile gauze. Gentian violet/India ink was applied as the dyeing agent at the MN treated sites and allowed to dry before excess dye was removed with ethanol and gauze. Both the dyes stain the viable epidermis but not the intact SC.

[4] = Micromedex 1.0, as fraction; cited from earlier work

Compound: O=C(Cc1ccccc1Nc1c(Cl)cccc1Cl)OC1CCC2(O)C3Cc4ccc(O)c5c4C2(CCN3CC2CC2)C1O5 (stereo not drawn) [Compound 2B]
- naltrexol flux [1]: approximately 0.29±0.09 nmol/cm^2/h
- Chemical stability [2]: 56.3 ± 9.5 days

Compound: O=C(Cc1ccccc1Nc1c(Cl)cccc1Cl)O[C@@H]1CC[C@@]2(O)[C@H]3Cc4ccc(O)c5c4[C@@]2(CCN3CC2CC2)C1O5 (stereo partly drawn) [Compound 2B]
- half-life ([2]; buffer pH 5.0, 32° C.): ~56.3 days

Compound: O=C1CC[C@@]2(O)[C@H]3Cc4ccc(O)c5c4[C@@]2(CCN3CC2CC2)[C@H]1O5 [NTX HCl, Naltrexone Hydrochloride, reference compound]
- pore visualization at day 4 (96 h) [3]: cannot be visualized

Compound: Oc1ccc2c3c1O[C@H]1[C@H](O)CC[C@@]4(O)[C@@H](C2)N(CC2CC2)CC[C@]314 [NTXOL, 6-β-Naltrexol, reference compound]
- naltrexol flux [1]: 3.07±0.27 nmol/cm^2/h

Compound: O=C(O)Cc1ccccc1Nc1c(Cl)cccc1Cl [diclofenac, Diclofenac]
- oral bioavailability [4]: 0.55
